One assay concerns HFF. Nature of the assay: Antiinflammatory activity assessed as inhibition of IL1 stimulated IL6 production in HFF cells by transrepression assay. It is filed as functional, cell-based. To be noted: Homo sapiens.
With `COc1ccc(F)cc1C(C)(C)CC(O)(Cc1cc(C)cc(C)c1)C(F)(F)F` (stereo not drawn), the concentration for a half-maximal effect (EC50) (as a rule, the concentration that produces a half-maximal response) is 280 nM.

As to `COc1ccc(F)cc1C(C)(C)CC(O)(Cc1ccc(C)c2ccccc12)C(F)(F)F` (stereo not drawn), the EC50 was above 2000 nM.

`C[C@@H]1C[C@H]2[C@@H]3CCC4=CC(=O)C=C[C@]4(C)[C@@]3(F)[C@@H](O)C[C@]2(C)[C@@]1(O)C(=O)CO` [DEXAMETHASONE]: the half-maximal effective concentration (EC50) was 0.5 nM.

For the molecule `COc1ccc(F)cc1C(C)(C)CC(O)(C(=O)Nc1ccc2c(=O)onc(C)c2c1)C(F)(F)F` (stereo not drawn), the EC50 was above 2000 nM.

For a further assay, the system named is HFF. As to the kind of experiment: Antiinflammatory activity assessed as inhibition of IL6 production in HFF cells by transrepression assay relative to dexamethasone. In kind it is functional, Homo sapiens.
Conditions: not given
As for `COc1ccc(F)cc1C(C)(C)CC(O)(Cc1cc(C)cc(C)c1)C(F)(F)F` (stereo not drawn), the Efficacy is recorded as 55%.

On to `COc1ccc(F)cc1C(C)(C)CC(O)(Cc1ccc(C)c2ccccc12)C(F)(F)F` (stereo not drawn), for which the Efficacy is 9%.

Consider `COc1ccc(F)cc1C(C)(C)CC(O)(C(=O)Nc1ccc2c(=O)onc(C)c2c1)C(F)(F)F` (stereo not drawn), for which the Efficacy is given as 20%.

A further assay relates to HFF. As to the kind of experiment: Antiinflammatory activity assessed as upregulation of aromatase in HFF cells by transactivation assay. In kind it is functional, cell-based. To be noted: Homo sapiens.
In the case of `COc1ccc(F)cc1C(C)(C)CC(O)(Cc1cc(C)cc(C)c1)C(F)(F)F` (stereo not drawn), the EC50 turned out to be 285 nM.

For `C[C@@H]1C[C@H]2[C@@H]3CCC4=CC(=O)C=C[C@]4(C)[C@@]3(F)[C@@H](O)C[C@]2(C)[C@@]1(O)C(=O)CO` [DEXAMETHASONE], the EC50 was determined as 2 nM.

With `COc1ccc(F)cc1C(C)(C)CC(O)(C(=O)Nc1ccc2c(=O)onc(C)c2c1)C(F)(F)F` (stereo not drawn), the EC50 is above 2000 nM.

A further assay deals with HFF. Nature of the assay: Antiinflammatory activity assessed as upregulation of aromatase in HFF cells by transactivation assay relative to dexamethasone. In kind it is functional, Homo sapiens. Set-up: concentration or dose not given beside the values.
Conditions: not given
With `COc1ccc(F)cc1C(C)(C)CC(O)(Cc1cc(C)cc(C)c1)C(F)(F)F` (stereo not drawn), the Activity is given as 80%.

On to `COc1ccc(F)cc1C(C)(C)CC(O)(C(=O)Nc1ccc2c(=O)onc(C)c2c1)C(F)(F)F` (stereo not drawn), for which the Activity is 0%.

For the next assay, the target named is T1, Glucocorticoid receptor (Homo sapiens, UniProt P04150).
T1 sequence (P04150 whole entry): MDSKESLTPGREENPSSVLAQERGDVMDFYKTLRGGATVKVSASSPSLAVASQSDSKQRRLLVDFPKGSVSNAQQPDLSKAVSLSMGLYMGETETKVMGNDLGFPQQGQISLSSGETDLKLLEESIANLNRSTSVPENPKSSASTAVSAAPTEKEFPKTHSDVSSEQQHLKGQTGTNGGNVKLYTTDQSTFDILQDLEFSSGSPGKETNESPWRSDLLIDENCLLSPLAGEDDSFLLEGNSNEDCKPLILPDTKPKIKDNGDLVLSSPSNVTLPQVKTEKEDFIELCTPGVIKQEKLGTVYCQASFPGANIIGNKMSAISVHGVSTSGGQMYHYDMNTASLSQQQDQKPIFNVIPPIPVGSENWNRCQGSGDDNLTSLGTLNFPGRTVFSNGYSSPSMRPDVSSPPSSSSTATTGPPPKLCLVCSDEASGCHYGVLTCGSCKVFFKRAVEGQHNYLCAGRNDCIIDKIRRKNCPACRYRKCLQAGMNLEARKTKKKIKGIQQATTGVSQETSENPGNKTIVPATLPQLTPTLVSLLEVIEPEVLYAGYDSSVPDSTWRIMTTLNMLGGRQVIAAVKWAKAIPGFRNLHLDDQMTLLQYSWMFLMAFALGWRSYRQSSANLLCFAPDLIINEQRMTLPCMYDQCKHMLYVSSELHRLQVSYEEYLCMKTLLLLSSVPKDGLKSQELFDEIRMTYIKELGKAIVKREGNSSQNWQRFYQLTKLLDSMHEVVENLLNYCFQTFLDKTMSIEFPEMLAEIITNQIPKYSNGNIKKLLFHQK
Test: not given
Conditions: not given
Turning to `COc1ccc(F)cc1C(C)(C)CC(O)(c1ccccc1)C(F)(F)F` (stereo not drawn), the IC50 (usually the concentration that gives 50% inhibition) is above 1600 nM.

`COc1ccc(F)cc1C(C)(C)CC(O)(CCc1ccccc1)C(F)(F)F` (stereo not drawn) gave an IC50 above 1300 nM.

`COc1ccc(F)cc1C(C)(C)CC(O)(Cc1cc(C)cc(C)c1)C(F)(F)F` (stereo not drawn): 55 nM corresponded to half-maximal inhibition (IC50).

In turn, `COc1ccc(F)cc1C(C)(C)CC(O)(Cc1cc(Cl)cc(Cl)c1)C(F)(F)F` (stereo not drawn) had an IC50 of 60 nM.

Take `COc1ccc(F)cc1C(C)(C)CC(O)(Cc1cccc(Cl)c1)C(F)(F)F` (stereo not drawn): half-maximal inhibition (IC50) was put at 550 nM.

`COc1ccc(F)cc1C(C)(C)CC(O)(Cc1ccc(C=O)cc1Cl)C(F)(F)F` (stereo not drawn) displayed an IC50 of 19 nM.

In turn, `COc1ccc(F)cc1C(C)(C)CC(O)(Cc1ccc(C)c2ccccc12)C(F)(F)F` (stereo not drawn) gave an IC50 of 58 nM.

The molecule `COc1ccc(F)cc1C(C)(C)CC(O)(Cc1ccccc1)C(F)(F)F` (stereo not drawn) returned an IC50 of 610 nM.

Consider `COc1ccc(F)cc1C(C)(C)CC(O)(Cc1ccc(Cl)cc1)C(F)(F)F` (stereo not drawn), for which the IC50 amounted to 340 nM.

As for `COc1ccc(F)cc1C(C)(C)CC(O)(Cc1ccc(C)cc1)C(F)(F)F` (stereo not drawn), half-maximal inhibition (IC50) required 945 nM.

The molecule `COc1ccc(F)cc1C(C)(C)CC(O)(Cc1ccccc1Cl)C(F)(F)F` (stereo not drawn) displayed an IC50 of 101 nM.

The molecule `COc1ccc(F)cc1C(C)(C)CC(O)(CCCc1ccccc1)C(F)(F)F` (stereo not drawn) came in with an IC50 of 1130 nM.

The target of another assay is T2, Progesterone receptor (Homo sapiens, UniProt P06401).
T2 sequence (P06401 whole entry): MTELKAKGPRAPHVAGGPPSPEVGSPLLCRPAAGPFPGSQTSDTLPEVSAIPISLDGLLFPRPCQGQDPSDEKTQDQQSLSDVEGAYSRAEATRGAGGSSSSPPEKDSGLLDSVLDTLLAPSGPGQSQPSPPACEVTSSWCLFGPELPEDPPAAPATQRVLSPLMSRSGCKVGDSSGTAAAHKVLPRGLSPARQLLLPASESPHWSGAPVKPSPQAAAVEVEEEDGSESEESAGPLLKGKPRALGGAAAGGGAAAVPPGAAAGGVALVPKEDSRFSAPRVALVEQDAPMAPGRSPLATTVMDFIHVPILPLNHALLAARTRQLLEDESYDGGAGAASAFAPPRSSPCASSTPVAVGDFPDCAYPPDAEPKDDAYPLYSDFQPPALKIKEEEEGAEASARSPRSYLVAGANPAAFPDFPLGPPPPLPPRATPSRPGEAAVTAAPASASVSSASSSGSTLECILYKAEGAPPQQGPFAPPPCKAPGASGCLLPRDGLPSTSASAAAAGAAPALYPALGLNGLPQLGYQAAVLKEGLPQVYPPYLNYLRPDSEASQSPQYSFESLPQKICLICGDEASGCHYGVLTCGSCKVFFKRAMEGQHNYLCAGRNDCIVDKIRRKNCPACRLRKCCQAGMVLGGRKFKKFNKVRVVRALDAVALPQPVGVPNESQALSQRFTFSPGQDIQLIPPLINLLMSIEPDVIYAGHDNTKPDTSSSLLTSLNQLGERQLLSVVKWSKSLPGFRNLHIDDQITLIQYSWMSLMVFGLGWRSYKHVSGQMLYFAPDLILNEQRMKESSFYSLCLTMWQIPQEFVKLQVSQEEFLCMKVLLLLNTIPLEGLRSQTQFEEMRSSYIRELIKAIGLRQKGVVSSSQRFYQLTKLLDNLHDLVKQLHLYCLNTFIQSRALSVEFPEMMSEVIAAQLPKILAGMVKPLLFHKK
As to the kind of experiment: Displacement of TAMRA labeled mifepristone at human progesterone receptor in insect cell.
Conditions: not given
In turn, `COc1ccc(F)cc1C(C)(C)CC(O)(c1ccccc1)C(F)(F)F` (stereo not drawn) registered an IC50 above 1600 nM.

`COc1ccc(F)cc1C(C)(C)CC(O)(CCc1ccccc1)C(F)(F)F` (stereo not drawn) showed an IC50 above 1300 nM.

The molecule `COc1ccc(F)cc1C(C)(C)CC(O)(Cc1cc(C)cc(C)c1)C(F)(F)F` (stereo not drawn) displayed an IC50 above 354 nM.

In turn, `COc1ccc(F)cc1C(C)(C)CC(O)(Cc1cc(Cl)cc(Cl)c1)C(F)(F)F` (stereo not drawn) registered an IC50 above 2000 nM.

With `COc1ccc(F)cc1C(C)(C)CC(O)(Cc1cccc(Cl)c1)C(F)(F)F` (stereo not drawn), the IC50 was above 2000 nM.

The molecule `COc1ccc(F)cc1C(C)(C)CC(O)(Cc1ccc(C=O)cc1Cl)C(F)(F)F` (stereo not drawn) returned an IC50 of 1800 nM.

As for `COc1ccc(F)cc1C(C)(C)CC(O)(Cc1ccc(C)c2ccccc12)C(F)(F)F` (stereo not drawn), the IC50 is 1200 nM.

The molecule `COc1ccc(F)cc1C(C)(C)CC(O)(Cc1ccccc1)C(F)(F)F` (stereo not drawn) displayed a half-maximal inhibitory concentration (IC50) above 1300 nM.

`COc1ccc(F)cc1C(C)(C)CC(O)(Cc1ccc(Cl)cc1)C(F)(F)F` (stereo not drawn) returned an IC50 above 2000 nM.

In turn, `COc1ccc(F)cc1C(C)(C)CC(O)(Cc1ccc(C)cc1)C(F)(F)F` (stereo not drawn) gave a 50% inhibitory concentration (IC50) above 2000 nM.

`COc1ccc(F)cc1C(C)(C)CC(O)(Cc1ccccc1Cl)C(F)(F)F` (stereo not drawn) showed an IC50 above 2000 nM.

In the case of `COc1ccc(F)cc1C(C)(C)CC(O)(CCCc1ccccc1)C(F)(F)F` (stereo not drawn), the IC50 is above 740 nM.

The next assay addresses T3, Mineralocorticoid receptor (Homo sapiens, UniProt P08235).
T3 sequence (P08235 whole entry): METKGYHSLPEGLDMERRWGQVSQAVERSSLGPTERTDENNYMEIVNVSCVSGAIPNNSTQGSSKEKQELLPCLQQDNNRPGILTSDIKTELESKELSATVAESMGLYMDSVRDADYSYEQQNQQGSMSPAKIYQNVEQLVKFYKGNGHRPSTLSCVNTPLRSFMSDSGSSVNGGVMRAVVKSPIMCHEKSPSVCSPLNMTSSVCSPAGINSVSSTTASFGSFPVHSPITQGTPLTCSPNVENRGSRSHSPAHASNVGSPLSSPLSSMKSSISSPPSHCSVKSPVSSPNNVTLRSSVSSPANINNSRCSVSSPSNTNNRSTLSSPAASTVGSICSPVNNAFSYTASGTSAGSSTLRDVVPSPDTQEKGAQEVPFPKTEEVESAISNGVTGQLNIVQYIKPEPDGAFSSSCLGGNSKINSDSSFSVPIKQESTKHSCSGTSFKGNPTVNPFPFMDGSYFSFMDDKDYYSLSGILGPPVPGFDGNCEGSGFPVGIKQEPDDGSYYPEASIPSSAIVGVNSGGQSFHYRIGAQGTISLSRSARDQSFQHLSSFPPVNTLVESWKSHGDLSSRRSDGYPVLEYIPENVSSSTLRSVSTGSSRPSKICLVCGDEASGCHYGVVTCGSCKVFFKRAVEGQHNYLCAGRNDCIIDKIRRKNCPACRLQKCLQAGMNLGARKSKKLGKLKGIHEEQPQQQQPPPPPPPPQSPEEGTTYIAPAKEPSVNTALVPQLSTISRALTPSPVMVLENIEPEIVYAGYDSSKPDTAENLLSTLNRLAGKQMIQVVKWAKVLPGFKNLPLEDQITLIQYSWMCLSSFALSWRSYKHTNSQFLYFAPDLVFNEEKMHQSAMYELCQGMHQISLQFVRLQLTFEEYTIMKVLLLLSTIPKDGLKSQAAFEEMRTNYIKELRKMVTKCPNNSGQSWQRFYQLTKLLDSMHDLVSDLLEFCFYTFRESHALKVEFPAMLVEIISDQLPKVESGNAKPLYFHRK
As to the kind of experiment: Displacement of TAMRA labeled dexamethasone at human mineralocorticoid receptor in insect cell.
Conditions: not given
Consider `COc1ccc(F)cc1C(C)(C)CC(O)(c1ccccc1)C(F)(F)F` (stereo not drawn), for which the IC50 came out at 1600 nM.

Regarding `COc1ccc(F)cc1C(C)(C)CC(O)(CCc1ccccc1)C(F)(F)F` (stereo not drawn), the IC50 was above 1300 nM.

The molecule `COc1ccc(F)cc1C(C)(C)CC(O)(Cc1cc(C)cc(C)c1)C(F)(F)F` (stereo not drawn) displayed an IC50 of 220 nM.

In the case of `COc1ccc(F)cc1C(C)(C)CC(O)(Cc1cc(Cl)cc(Cl)c1)C(F)(F)F` (stereo not drawn), the IC50 came out at 760 nM.

In turn, `COc1ccc(F)cc1C(C)(C)CC(O)(Cc1cccc(Cl)c1)C(F)(F)F` (stereo not drawn) showed an IC50 above 2000 nM.

In turn, `COc1ccc(F)cc1C(C)(C)CC(O)(Cc1ccc(C=O)cc1Cl)C(F)(F)F` (stereo not drawn) gave an IC50 of 345 nM.

`COc1ccc(F)cc1C(C)(C)CC(O)(Cc1ccc(C)c2ccccc12)C(F)(F)F` (stereo not drawn) returned an IC50 of 1050 nM.

`COc1ccc(F)cc1C(C)(C)CC(O)(Cc1ccccc1)C(F)(F)F` (stereo not drawn) had an IC50 above 1300 nM.

As to `COc1ccc(F)cc1C(C)(C)CC(O)(Cc1ccc(Cl)cc1)C(F)(F)F` (stereo not drawn), the IC50 worked out at 1800 nM.

`COc1ccc(F)cc1C(C)(C)CC(O)(Cc1ccc(C)cc1)C(F)(F)F` (stereo not drawn) yielded a half-inhibitory concentration (IC50) above 2000 nM.

`COc1ccc(F)cc1C(C)(C)CC(O)(Cc1ccccc1Cl)C(F)(F)F` (stereo not drawn) displayed an IC50 of 715 nM.

For the molecule `COc1ccc(F)cc1C(C)(C)CC(O)(CCCc1ccccc1)C(F)(F)F` (stereo not drawn), the IC50 was above 740 nM.

These data come from ChEMBL document CHEMBL1149697, “Identification of dissociated non-steroidal glucocorticoid receptor agonists” (Bioorg Med Chem Lett, 2007).
